Assay results from patent US11999720B2, “Pyrazolylacylpyrazoline compounds and method for treating pain” (THE TRUSTEES OF INDIANA UNIVERSITY, priority 2018, dated 2024).

Columns and labels:
[1] = test system: acute thermal nociception in the rat; assay: acute thermal nociception in the rat (Hargreaves' plantar test); type: in vivo; conditions: for paw withdrawal latency (PWL), analgesic effect: rats, n=6 per group, FIG. 12
Experimental: Pathogen-free, adult, female Sprague Dawley (weight at testing 150-200 g; Harlan-Sprague-Dawley, Indianapolis, IN) were housed in a climate-controlled room on a 12-hour light/dark cycle and were allowed to have food and water ad libitum. All procedures were approved by the Indiana University Animal Care and Use Committee and conformed to the guidelines of the National Institutes of Health (publication no. 80-23, 1966) for the use of laboratory animals. All behavioral experiments were conducted by experimenters blinded to the treatment conditions and compound identity. The experiments were replicated a minimum of 2 times with independent cohorts of animals. For in vivo studies, the inventive compounds were freshly prepared saline (0.9%) on the day of the experiment. […] Louis, MO) was freshly prepared on the day of the experiment in saline. All drugs were dissolved in 1 mL solution and administered by intraperitoneal (i.p.) injections 1 h prior to all behavioral assays. To evaluate the PWT to thermal stimulation, the Hargreaves' plantar test apparatus (Ugo Basile, Varese, Italy) was used. Measurements of the withdrawal latency of the paw began after the rats were habituated to the testing environment (IR setting=70). The measurements were repeated four times, at 5 min intervals and the initial pair of measurements was not used. The averages of the three remaining pairs of measurements taken were employed as data. A model of behavioral sensitivity using thermal stimulus was used to determine the acute analgesic properties of the compounds of the present invention.

[2] = test system: T1, CaV2.2 channels in HEK-CaV2.2 cells (Rattus norvegicus); assay: whole cell patch-clamp, CaV2.2 currents in HEK-CaV2.2 cells; type: cell-based
T1 construct: expressed in transfected cells
Experimental: The G-V curves are shown.
HEK-CaV2.2 cells were pretreated with various concentrations of compound 14 for 48 hours. CaV2.2 currents were acquired during 20-ms depolarizing pulses, and the current densities were calculated as a ratio of the peak current amplitude and each cell capacitance (0.1 μM, n=6; 1 μM, n=7; 10 μM, n=8; 50 μM, n=12). The line is the fit of the data to the four-parameter logistic function.
EK-CaV2.2 cells were pretreated with the indicated compounds for 48 hours. *** corresponds to […].
FIGS. 8 and 9 show the effects of 2 and 14 on the voltage dependence of activation of CaV2.2 channels in HEK-CaV2.2 cells pretreated with the vehicle or the indicated compounds for 48 hours. […] The gray vertical lines are the error bars (S.E.M.).
FIGS. 10 and 11 show acute effects of DMSO and 14 on the voltage dependence of activation of CaV2.2 channels in HEK-CaV2.2 cells. […] The gray vertical lines are the error bars (S.E.M.). “ns”—stands for not significant.
(§1) The whole cell patch-clamp technique was used to record CaV2.2 currents in HEK-CaV2.2 cells and rat DRG neurons. HEK293 cells that stably expressed rat N-type CaV2.2α1B, rat CaVβ3, and rat […] were utilized. Cells were grown in Dulbecco's modified Eagle's medium (DMEM) supplemented with 10% FBS, 50 units penicillin, 50 μg/ml streptomycin, 5 μg/ml blasticidin, 5 μg/ml hydromycin and 25 μg/ml zeozin at 37° C. in a humidified atmosphere of 95% air and 5% CO2. For patch clamp experiments, HEK-CaV2.2 cells were plated on glass coverslips and were cultured for 24-48 h. All animal procedures were performed in accordance to the NIH guide and were approved by the Indiana University School of Medicine Institutional Animal Care and Use Committee. Young adult Sprague Dawley rats were anesthetized (3% isoflurane) and then decapitated. The spinal column was removed, cut open, and dorsal root ganglia were harvested from the Lumbar L4-L6 vertebral levels. The ganglia were incubated in DMEM containing collagenase (1 mg/ml, Worthington: LS04194) and protease (1 mg/ml, Worthington: LS02104) for 30-60 minutes, and DRG neurons were dissociated by triturating in DMEM supplemented with 10% FBS. The isolated DRG neurons were plated on glass coverslips coated with growth factor reduced Matrigel (Thermo Fisher Scientific, Waltham, MA) and were cultured in Eagle's minimum essential medium (Invitrogen, CA) supplemented with 0.2% BSA and 20 ng/ml NGF-2.5S (BD Biosciences, Bedford, MA) at 37° C. in a water-jacketed 5% CO2 incubator overnight for the patch-clamp experiments.

[3] = test system: tibial nerve injury (TNI) model of neuropathic pain; assay: tibial nerve injury (TNI) model of neuropathic pain, von Frey withdrawal threshold; type: in vivo, rat; conditions: for withdrawal threshold to von Frey stimulation: 1 h, 28 days after TNI, before dosing 33.1±5.9, pre-surgery 68.7±3.7
Experimental: Pathogen-free, adult, female Sprague Dawley (weight at testing 150-200 g; Harlan-Sprague-Dawley, Indianapolis, IN) were housed in a climate-controlled room on a 12-hour light/dark cycle and were allowed to have food and water ad libitum. All procedures were approved by the Indiana University Animal Care and Use Committee and conformed to the guidelines of the National Institutes of Health (publication no. 80-23, 1966) for the use of laboratory animals. All behavioral experiments were conducted by experimenters blinded to the treatment conditions and compound identity. The experiments were replicated a minimum of 2 times with independent cohorts of animals.
For in vivo studies, the inventive compounds were freshly prepared saline (0.9%) on the day of the experiment. Morphine sulfate salt (Sigma-Aldrich, St. Louis, MO) was freshly prepared on the day of the experiment in saline. […]
The inventive compounds were assessed with the tibial nerve injury (TNI) model of neuropathic pain 28 days after surgery. Using isoflurane anesthesia (4% induction and 2% maintenance), the right sciatic nerve was isolated under aseptic surgical conditions by blunt dissection of the femoral biceps muscle and the tibial nerve was tightly ligated with 5-0 silk and transected distal to the ligation. Additional 2 to 3 mm of distal nerve stump was removed to prevent reinnervation by the proximal nerve. The overlying muscle and skin was then sutured in 2 separate layers. Sham-injured animals were subjected to all preceding procedures with the exception of ligation and transection. All animals were returned to the housing facility and allowed to survive for 28 d. Mechanical stimuli were applied with 7 filaments, each differing in the bending force delivered (10, 20, 40, 60, 80, 100, and 120 mN), and fitted with a flat tip and fixed diameter of 0.2 mm. The filaments were tested in the order of ascending force, with each filament delivered for 1 second. Withdrawal threshold was determined by sequentially increasing and analyzed with Hill equation was fitted to the function (Origin version 6.0; Microcal Software) relating the percentage of indentations eliciting a withdrawal to the force of indentation.

[4] = biological target: T2, CaVβ3 Arg-307-Ala (Rattus norvegicus, UniProt P54287, R307A); assay: site-directed mutagenesis: displacement of fluorescently-labeled CaVα1-AID bound to mutated CaVβ3; type: binding
T2 construct: His; made in house
From the text: (§2) Compound 6 forms a salt bridge interaction with Arg-307 through a benzoic acid moiety. […] Arg-307 was mutated to alanine.

[5] = biological target: T3, CaVβ3 (Rattus norvegicus, UniProt P54287); assay: label-free microscale thermophoresis (MST), direct binding; conditions: direct binding to CaVβ3, read-out: dissociation constant (Kd)
T3 construct: made in house; host or cells: E. coli BL21(DE3)
Experimental: Curve fitting analysis led to a dissociation constant of 3.6±1.1 μM.
(§3) The plasmid of pET28a-CaV2.2β3 subunit was transformed into competent E. Coli BL21(DE3) strain. Culture was grown in LB medium at 37° C. to an OD600 of approximately 0.6 and then induced with 0.5 mM IPTG at 16° C. for 16 h. Cells were collected by centrifugation and lysed by microfluidizer in lysis buffer (phosphate buffer, pH 7.6, 2 mM DTT). The His-CaVβ3 protein was purified at 4° C. using Ni-IMAC chromatography (His-Trap HP, GE Healthcare) and eluted with 500 mM imidazole in lysis buffer with a gradient method. After the fractions consisted of His-CaVβ3 was combined and concentrated, the protein was further purified using size exclusion chromatography (Superdex 200 pg, GE Healthcare) in PBS with 2 mM DTT.
Direct binding of compound 6 to CaVβ3 was confirmed with label-free microscale thermophoresis (MST).

[6] = biological target: T4, CaV2.2 currents in rat DRG neurons (Rattus norvegicus, UniProt Q02294); assay: whole cell patch-clamp, CaV2.2 currents in rat DRG neurons; type: cell-based; conditions: 50 μM acute
T4 construct: from tissue; host or cells: dissociated dorsal root ganglion neurons (L4-L6) of young adult Sprague Dawley rats
Experimental: as §1, with “The isolated DRG neurons were plated on glass coverslips coated with growth factor reduced Matrigel (Thermo Fisher Scientific, Waltham, MA) and were cultured in Eagle's minimum essential medium (Invitrogen, CA) supplemented with 0.2% BSA and 20 ng/ml NGF-2.5S (BD Biosciences, Bedford, MA) at 37° C. in a water-jacketed 5% CO2 incubator overnight for the patch-clamp experiments.” left out

[7] = biological target: T5, CaVα1CaVβ3 interaction (Rattus norvegicus, UniProt P54287); assay: fluorescence polarization assay, inhibition constant; type: binding; conditions: fluorescence polarization assay
T5 construct: made in house; host or cells: E. coli BL21(DE3)
Experimental: as §3, §2

T1 sequence (P54287 whole entry): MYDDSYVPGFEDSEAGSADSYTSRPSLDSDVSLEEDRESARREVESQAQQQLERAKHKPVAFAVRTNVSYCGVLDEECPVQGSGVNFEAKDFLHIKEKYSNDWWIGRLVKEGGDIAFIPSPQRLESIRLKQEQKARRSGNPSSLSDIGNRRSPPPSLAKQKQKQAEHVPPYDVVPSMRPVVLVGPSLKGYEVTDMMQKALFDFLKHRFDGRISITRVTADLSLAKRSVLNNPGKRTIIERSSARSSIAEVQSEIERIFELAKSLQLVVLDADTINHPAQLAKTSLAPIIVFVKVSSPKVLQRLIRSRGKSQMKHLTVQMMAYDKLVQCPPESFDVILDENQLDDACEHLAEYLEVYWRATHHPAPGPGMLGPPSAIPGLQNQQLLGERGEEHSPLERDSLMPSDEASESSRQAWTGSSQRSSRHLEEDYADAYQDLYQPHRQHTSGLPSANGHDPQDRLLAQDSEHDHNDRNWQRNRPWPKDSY
T2 sequence (P54287 whole entry R307A): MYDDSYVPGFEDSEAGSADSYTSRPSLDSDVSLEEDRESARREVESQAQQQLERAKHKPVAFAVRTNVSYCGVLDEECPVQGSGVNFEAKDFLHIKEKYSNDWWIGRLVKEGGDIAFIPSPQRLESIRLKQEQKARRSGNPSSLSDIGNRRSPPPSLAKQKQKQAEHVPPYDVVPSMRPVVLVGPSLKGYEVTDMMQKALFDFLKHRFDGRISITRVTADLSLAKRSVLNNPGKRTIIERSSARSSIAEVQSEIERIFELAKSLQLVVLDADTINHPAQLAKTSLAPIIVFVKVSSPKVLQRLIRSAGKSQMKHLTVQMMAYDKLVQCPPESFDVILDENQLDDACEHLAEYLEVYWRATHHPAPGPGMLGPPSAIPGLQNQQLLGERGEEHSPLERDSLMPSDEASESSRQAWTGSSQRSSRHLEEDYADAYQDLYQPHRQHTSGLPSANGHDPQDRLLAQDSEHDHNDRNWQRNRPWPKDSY
T5 sequence (P54287 whole entry): as the sequence (P54287 whole entry) above
T3 sequence (P54287 whole entry): as above
T4 sequence (P54287 whole entry partner): as the sequence (P54287 whole entry) above
T4 sequence (Q02294 whole entry): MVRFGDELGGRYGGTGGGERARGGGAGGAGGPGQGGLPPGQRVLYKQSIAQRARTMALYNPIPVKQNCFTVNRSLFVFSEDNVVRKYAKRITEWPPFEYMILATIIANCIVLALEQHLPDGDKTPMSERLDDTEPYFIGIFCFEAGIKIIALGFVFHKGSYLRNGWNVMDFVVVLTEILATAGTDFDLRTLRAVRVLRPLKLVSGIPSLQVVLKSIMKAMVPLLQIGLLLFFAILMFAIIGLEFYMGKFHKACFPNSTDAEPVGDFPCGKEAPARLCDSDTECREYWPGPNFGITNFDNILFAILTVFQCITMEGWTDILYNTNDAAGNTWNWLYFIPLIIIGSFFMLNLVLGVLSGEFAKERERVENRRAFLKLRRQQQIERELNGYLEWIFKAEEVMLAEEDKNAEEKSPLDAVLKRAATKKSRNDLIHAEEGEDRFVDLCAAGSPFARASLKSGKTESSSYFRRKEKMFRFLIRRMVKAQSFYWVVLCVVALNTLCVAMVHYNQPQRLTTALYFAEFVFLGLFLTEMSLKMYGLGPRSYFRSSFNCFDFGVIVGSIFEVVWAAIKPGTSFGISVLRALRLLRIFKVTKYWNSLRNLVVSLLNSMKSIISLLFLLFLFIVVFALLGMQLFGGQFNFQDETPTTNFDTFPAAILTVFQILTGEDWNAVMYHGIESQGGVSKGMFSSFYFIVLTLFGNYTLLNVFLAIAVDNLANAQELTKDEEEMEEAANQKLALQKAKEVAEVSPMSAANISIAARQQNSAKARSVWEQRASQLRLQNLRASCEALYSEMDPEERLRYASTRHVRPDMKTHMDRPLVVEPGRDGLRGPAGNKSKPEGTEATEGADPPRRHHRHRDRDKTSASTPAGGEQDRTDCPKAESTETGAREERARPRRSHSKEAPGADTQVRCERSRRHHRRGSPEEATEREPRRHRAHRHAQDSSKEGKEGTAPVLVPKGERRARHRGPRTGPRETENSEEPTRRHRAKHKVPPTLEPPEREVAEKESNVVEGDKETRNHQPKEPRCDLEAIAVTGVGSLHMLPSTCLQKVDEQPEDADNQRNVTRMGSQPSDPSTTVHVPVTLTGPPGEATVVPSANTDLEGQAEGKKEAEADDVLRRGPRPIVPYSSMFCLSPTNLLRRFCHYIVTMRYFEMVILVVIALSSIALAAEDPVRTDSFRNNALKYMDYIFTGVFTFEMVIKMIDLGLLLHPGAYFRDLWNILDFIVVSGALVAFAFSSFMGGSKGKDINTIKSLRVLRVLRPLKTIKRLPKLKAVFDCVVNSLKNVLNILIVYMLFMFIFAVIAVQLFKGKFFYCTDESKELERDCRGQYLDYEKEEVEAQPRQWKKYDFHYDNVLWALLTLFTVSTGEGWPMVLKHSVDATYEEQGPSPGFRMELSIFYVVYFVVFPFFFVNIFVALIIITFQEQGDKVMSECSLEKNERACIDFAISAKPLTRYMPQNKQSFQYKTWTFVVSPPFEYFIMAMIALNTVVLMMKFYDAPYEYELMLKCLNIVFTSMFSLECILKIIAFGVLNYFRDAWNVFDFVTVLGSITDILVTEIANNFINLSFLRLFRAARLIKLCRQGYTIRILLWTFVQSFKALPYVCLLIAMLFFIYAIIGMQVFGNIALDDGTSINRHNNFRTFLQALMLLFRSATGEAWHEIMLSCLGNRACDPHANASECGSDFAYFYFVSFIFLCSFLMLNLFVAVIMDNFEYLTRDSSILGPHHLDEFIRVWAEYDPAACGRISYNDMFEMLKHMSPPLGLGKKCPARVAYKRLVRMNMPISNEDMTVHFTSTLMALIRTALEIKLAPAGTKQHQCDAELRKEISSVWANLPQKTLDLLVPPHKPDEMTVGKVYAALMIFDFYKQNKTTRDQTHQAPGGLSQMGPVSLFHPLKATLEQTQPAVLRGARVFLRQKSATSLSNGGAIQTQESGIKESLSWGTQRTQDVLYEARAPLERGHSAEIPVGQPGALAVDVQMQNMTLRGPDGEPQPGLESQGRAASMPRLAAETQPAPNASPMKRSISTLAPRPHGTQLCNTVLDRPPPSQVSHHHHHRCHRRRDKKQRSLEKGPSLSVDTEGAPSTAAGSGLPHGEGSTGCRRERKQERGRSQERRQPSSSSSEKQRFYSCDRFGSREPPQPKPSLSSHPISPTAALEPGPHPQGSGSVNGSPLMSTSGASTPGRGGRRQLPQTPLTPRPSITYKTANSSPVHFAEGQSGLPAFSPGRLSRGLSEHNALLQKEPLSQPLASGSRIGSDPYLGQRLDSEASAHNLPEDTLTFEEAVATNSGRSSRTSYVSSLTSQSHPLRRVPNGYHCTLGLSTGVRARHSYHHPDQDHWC

Row | SMILES | paw withdrawal latency (PWL), analgesic effect [1] | steady-state inactivation V0.5, inact ([2]; 50 μM, pretreated 48 hours) [mV] | density of CaV2.2 currents ([2]; 50 μM, pretreated 48 hours, depolarizing pulses to 0 mV from holding potential −80 mV, DMSO −74.8±7.0) [pA/pF] | mean half-activation potential V0.5, act ([2]; pretreated 48 hours, DMSO 8.7±1.1) [mV] | effect on CaV2.2 currents amplitudes ([2]; used acutely or as a long-term treatment, HEK-CaV2.2 cells) | withdrawal threshold to von Frey stimulation ([3]; 10 mg/kg ip) [mN] | response latency to thermal stimulus ([1]; systemic administration, 1 or 10 mg/kg) | effect on CaV2.2 currents, acute application ([2]; 50 μM acute, HEK-CaV2.2 cells) | CaV2.2 current density ([2]; 50 μM, pretreated 48 hours, DMSO −98.0±12.5) [pA/pF] | mean half-activation potential ([2]; pretreated 48 hours (50 μM per FIG. 4), DMSO 6.7±0.6) [mV] | effect on behavior (tactile hypersensitivity) ([3]; 1 mg/kg and 0.1 mg/kg, at 1 or 4 hours) | attenuation of tactile hypersensitivity at 4 h ([3]; 10 mg/kg ip, 4 h after administration) | duration of reversal of mechanical hypersensitivity ([3]; 10 mg/kg, 4 weeks after TNI) | inhibition of the protein-protein interaction with CaVβ3 Arg-307-Ala (displacement of fluorescently-labeled CaVα1-AID) [4] | Kd [5] [µM] | effect on CaV2.2 currents, acute application [6] | Ki [7] [nM]
1 | COc1ccc(C2=NN(C(=O)CCC(C)=O)C(c3cn(-c4ccccc4)nc3-c3ccc(C)cc3)C2)cc1 (stereo not shown) [Compound 2, 1-(5-(4-methoxyphenyl)-1′-phenyl-3′-(p-tolyl)-3,4-dihydro-1′H,2H-[3,4′-bipyrazol]-2-yl)pentane-1,4-dione] | lack of analgesic effect | −61.6±2.0 | −79.2±8.2 | 8.5±1.4 | did not affect | 32±2.6 |  |  |  |  |  |  |  |  |  |  | 
2 | COc1ccc(C2=NN(C(=O)c3cccc(C(=O)O)c3)C(c3cn(-c4ccccc4)nc3-c3ccc(C)cc3)C2)cc1 (stereo not shown) [Compound 6, 3-(5-(4-methoxyphenyl)-1′-phenyl-3′-(p-tolyl)-3,4-dihydro-1′H,2H-[3,4′-bipyrazole]-2-carbonyl)benzoic acid] | lack of analgesic effect |  |  |  |  | 62.2±3.1 | failed to elicit changes | did not affect | −28.7±5.0 | 9.4±1.2 | did not alter behavior | not at 4 h | limited to 1 h | does not inhibit | 3.6 ± 1.1 | did not affect | 1400 ± 100
